Marks after values point to notes of the source that are not given here.
Columns and labels:
[1] = tested on: newly ecdysed fifth instar larvae of G. pyloalis; test: Topical bioassay; assay type: in vivo, Glyphodes pyloalis Walker; details: Glyphodes pyloalis
Protocol: (§1) The insects used in the present application is Glyphodes pyloalis Walker (Lepidoptera: Pyralidae) which was collected from infested mulberry orchards in the vicinity of Rasht, Iran. Mass rearing of insects was carried out in the laboratory under controlled conditions at 25±1° C., 70±5% RH and 16:8 L:D. Newly-ecdysed fifth instar larvae of G. pyloalis were used for the bioassay experiments. The Glyphodes pyloalis Walker hereinafter is referred to as G. pyloalis.
To determine the efficacy of the encapsulated nano-IMI prepared using ethanol, a topical bioassay was performed. In the preliminary tests, 5 concentrations of bulk and nano-IMI were tested. […] Fifty larvae per concentration were used for all experiments and each experiment was replicated 4 times; 1 μl of the desired concentration was topically applied to the metathoracic tergum. The controls received 1 μl of ethanol in the same way. The treated larvae were allowed to eat fresh leaves. After 24, 48, 72 and 96 h, the numbers of dead larvae were recorded.

[2] = tested on: newly-ecdysed fifth instar larvae of G. pyloalis; test: Leaf dip bioassay; assay type: in vivo, Glyphodes pyloalis Walker; details: for mortality at 50 ppm / mortality at 80 ppm / mortality at 126 ppm / mortality at 200 ppm / mortality at 316 ppm / mortality at 500 ppm: Glyphodes pyloalis, foliar
Protocol: as §1
The toxicity of the encapsulated imidacloprid diluted in water for the newly-ecdysed fifth instar larvae of G. pyloalis was evaluated using leaf dip bioassay. The technical imidacloprid was dissolved in acetone and diluted to generate 6 serial dilutions with distilled water. Mulberry leaf discs with diameters of 3.5 cm were prepared, so that each petiole was placed in a vial containing water for providing moisture to the leaf discs for several days. These discs were then immersed in the dilutions for 45 seconds. Mortality was assessed after the treated larvae were maintained at 25±1° C., 70±10 R.H. for 24, 48, 72, 96 and 120 hours.

[3] = Photo degradation of indoxacarb in the batch reactor under natural light
[4] = Photocatalytic degradation of indoxacarb under UV light; assay type: physicochemical

O=[N+]([O-])NC1=NCCN1Cc1ccc(Cl)nc1 [Imidacloprid]
mortality at 22 ppm ([1]; 24 h after treatment): 18.1%
mortality at 22 ppm ([1]; 48 h after treatment): 20%
mortality at 22 ppm ([1]; 72 h after treatment): 22%
mortality at 22 ppm ([1]; 96 h after treatment): 24%
mortality at 32 ppm ([1]; 24 h after treatment): 33%
mortality at 32 ppm ([1]; 48 h after treatment): 35%
mortality at 32 ppm ([1]; 72 h after treatment): 36.5%
mortality at 32 ppm ([1]; 96 h after treatment): 38.2%
mortality at 47.5 ppm ([1]; 24 h after treatment): 50%
mortality at 47.5 ppm ([1]; 48 h after treatment): 52.1%
mortality at 47.5 ppm ([1]; 72 h after treatment): 54%
mortality at 47.5 ppm ([1]; 96 h after treatment): 56%
mortality at 60 ppm ([1]; 24 h after treatment): 76%
mortality at 60 ppm ([1]; 48 h after treatment): 78%
mortality at 60 ppm ([1]; 72 h after treatment): 80.4%
mortality at 60 ppm ([1]; 96 h after treatment): 82%
mortality at 50 ppm ([2]; 24 h after treatment): 2.5 ± 2%
mortality at 50 ppm ([2]; 48 h after treatment): 15.6%
mortality at 50 ppm ([2]; 72 h after treatment): 27%
mortality at 50 ppm ([2]; 96 h after treatment): 42.5%
mortality at 50 ppm ([2]; 120 h after treatment): 46.2 ± 2.39%
mortality at 80 ppm ([2]; 24 h after treatment): 8.82%
mortality at 80 ppm ([2]; 48 h after treatment): 23.8%
mortality at 80 ppm ([2]; 72 h after treatment): 39.6 ± 3.33%
mortality at 80 ppm ([2]; 96 h after treatment): 57.8 ± 3.17%
mortality at 80 ppm ([2]; 120 h after treatment): 58.8 ± 3.75%
mortality at 126 ppm ([2]; 24 h after treatment): 21.9 ± 3.07%
mortality at 126 ppm ([2]; 48 h after treatment): 43.8 ± 2.39%
mortality at 126 ppm ([2]; 72 h after treatment): 58.6 ± 3.41%
mortality at 126 ppm ([2]; 96 h after treatment): 76.2 ± 3.17%
mortality at 126 ppm ([2]; 120 h after treatment): 78.8 ± 3.75%
mortality at 200 ppm ([2]; 24 h after treatment): 34.2 ± 2.09%
mortality at 200 ppm ([2]; 48 h after treatment): 55%
mortality at 200 ppm ([2]; 72 h after treatment): 71.7 ± 2.04%
mortality at 200 ppm ([2]; 96 h after treatment): 78.8 ± 2.39%
mortality at 200 ppm ([2]; 120 h after treatment): 80%
mortality at 316 ppm ([2]; 24 h after treatment): 39.2 ± 4.13%
mortality at 316 ppm ([2]; 48 h after treatment): 60%
mortality at 316 ppm ([2]; 72 h after treatment): 75%
mortality at 316 ppm ([2]; 96 h after treatment): 84.2 ± 3.37%
mortality at 316 ppm ([2]; 120 h after treatment): 86.2 ± 2.39%
mortality at 500 ppm ([2]; 24 h after treatment): 57.5 ± 2.04%
mortality at 500 ppm ([2]; 48 h after treatment): 77.6 ± 4%
mortality at 500 ppm ([2]; 72 h after treatment): 86.1 ± 1.63%
mortality at 500 ppm ([2]; 96 h after treatment): 100%
mortality at 500 ppm ([2]; 120 h after treatment): 100%

COC(=O)N(C(=O)N1CO[C@@]2(C(=O)OC)Cc3cc(Cl)ccc3C2=N1)c1ccc(OC(F)(F)F)cc1 [Indoxacarb, lndoxacarb]
% photo degradation of indoxacarb ([3]; 10 ppm, 2 d): 16.33%
% photo degradation of indoxacarb ([3]; 10 ppm, 4 d): 19.02%
% photo degradation of indoxacarb ([3]; 10 ppm, 6 d): 21.21%
% photo degradation of indoxacarb ([3]; 10 ppm, 8 d): 23.4%
% photo degradation of indoxacarb ([3]; 10 ppm, 10 d): 30.47%
% photo degradation of indoxacarb ([3]; 20 ppm, 2 d): 22.26%
% photo degradation of indoxacarb ([3]; 20 ppm, 4 d): 23.47%
% photo degradation of indoxacarb ([3]; 20 ppm, 6 d): 25.17%
% photo degradation of indoxacarb ([3]; 20 ppm, 8 d): 29.28%
% photo degradation of indoxacarb ([3]; 20 ppm, 10 d): 33.4%
% photo degradation of indoxacarb ([3]; 30 ppm, 2 d): 26.23%
% photo degradation of indoxacarb ([3]; 30 ppm, 4 d): 29.2%
% photo degradation of indoxacarb ([3]; 30 ppm, 6 d): 31.18%
% photo degradation of indoxacarb ([3]; 30 ppm, 8 d): 33.16%
% photo degradation of indoxacarb ([3]; 30 ppm, 10 d): 36.13%
% photo degradation of indoxacarb ([3]; 40 ppm, 2 d): 22.26%
% photo degradation of indoxacarb ([3]; 40 ppm, 4 d): 29.28%
% photo degradation of indoxacarb ([3]; 40 ppm, 6 d): 31.34%
% photo degradation of indoxacarb ([3]; 40 ppm, 8 d): 36.3%
% photo degradation of indoxacarb ([3]; 40 ppm, 10 d): 39.21%
% photo degradation of indoxacarb ([3]; 50 ppm, 2 d): 21.23%
% photo degradation of indoxacarb ([3]; 50 ppm, 4 d): 26.35%
% photo degradation of indoxacarb ([3]; 50 ppm, 6 d): 30.18%
% photo degradation of indoxacarb ([3]; 50 ppm, 8 d): 32.23%
% photo degradation of indoxacarb ([3]; 50 ppm, 10 d): 37.38%
% degradation of indoxacarb ([4]; 10 ppm, 1 h): 2.3%
% degradation of indoxacarb ([4]; 10 ppm, 3 h): 7.44%
% degradation of indoxacarb ([4]; 10 ppm, 6 h): 10.26%
% degradation of indoxacarb ([4]; 10 ppm, 18 h): 13.07%
% degradation of indoxacarb ([4]; 20 ppm, 1 h): 6.24%
% degradation of indoxacarb ([4]; 20 ppm, 3 h): 12.49%
% degradation of indoxacarb ([4]; 20 ppm, 6 h): 18.9%
% degradation of indoxacarb ([4]; 20 ppm, 18 h): 22.03%
% degradation of indoxacarb ([4]; 30 ppm, 1 h): 9.32%
% degradation of indoxacarb ([4]; 30 ppm, 3 h): 13.07%
% degradation of indoxacarb ([4]; 30 ppm, 6 h): 23.34%
% degradation of indoxacarb ([4]; 30 ppm, 18 h): 25.21%
% degradation of indoxacarb ([4]; 40 ppm, 1 h): 11.47%
% degradation of indoxacarb ([4]; 40 ppm, 3 h): 15.04%
% degradation of indoxacarb ([4]; 40 ppm, 6 h): 24.26%
% degradation of indoxacarb ([4]; 40 ppm, 18 h): 25.39%
% degradation of indoxacarb ([4]; 50 ppm, 1 h): 9.23%
% degradation of indoxacarb ([4]; 50 ppm, 3 h): 13.34%
% degradation of indoxacarb ([4]; 50 ppm, 6 h): 21.02%
% degradation of indoxacarb ([4]; 50 ppm, 18 h): 21.02%
maximum amount of indoxacarb removed / degraded ([4]; after approximately 18 h, over all concentrations (10-50 ppm)): about 25%
% mortality ([2]; 0.25 ppm, 24 h after treatment): 21 ± 2.91^g %
% mortality ([2]; 0.25 ppm, 72 h after treatment): 56.4 ± 8.84^bcdef %
% mortality ([2]; 0.25 ppm, 96 h after treatment): 61 ± 8.73^bcdef %
% mortality ([2]; 0.25 ppm, 120 h after treatment): 62 ± 7.62^bcdef %
% mortality ([2]; 0.45 ppm, 24 h after treatment): 34 ± 10.29^efg %
% mortality ([2]; 0.45 ppm, 48 h after treatment): 47.9 ± 10^cdefg %
% mortality ([2]; 0.45 ppm, 72 h after treatment): 59 ± 19.97^bcdef %
% mortality ([2]; 0.45 ppm, 96 h after treatment): 63 ± 12.32^bcdef %
% mortality ([2]; 0.45 ppm, 120 h after treatment): 64 ± 12.67^bcdef %
% mortality ([2]; 0.82 ppm, 24 h after treatment): 34.32 ± 7.45^efg %
% mortality ([2]; 0.82 ppm, 48 h after treatment): 51.5 ± 9.25^cdefg %
% mortality ([2]; 0.82 ppm, 72 h after treatment): 63.58 ± 7.84^bcdef %
% mortality ([2]; 0.82 ppm, 96 h after treatment): 76 ± 2.73^abcd %
% mortality ([2]; 0.82 ppm, 120 h after treatment): 77 ± 2.23^abcd %
% mortality ([2]; 1.5 ppm, 24 h after treatment): 44.16 ± 8.22^defg %
% mortality ([2]; 1.5 ppm, 48 h after treatment): 62 ± 2.23^bcdef %
% mortality ([2]; 1.5 ppm, 72 h after treatment): 74.4 ± 2.58^abcd %
% mortality ([2]; 1.5 ppm, 96 h after treatment): 83 ± 2.23^abc %
% mortality ([2]; 1.5 ppm, 120 h after treatment): 83.6 ± 2.07^abc %
% mortality ([2]; 2.8 ppm, 24 h after treatment): 51.32 ± 8.9^cdefg %
% mortality ([2]; 2.8 ppm, 48 h after treatment): 68.82 ± 5.05^abcde %
% mortality ([2]; 2.8 ppm, 72 h after treatment): 76.66 ± 4.27^abcd %
% mortality ([2]; 2.8 ppm, 96 h after treatment): 88.32 ± 6.55^ab %
% mortality ([2]; 2.8 ppm, 120 h after treatment): 88.4 ± 6.57^ab %
% mortality ([2]; 4 ppm, 24 h after treatment): 55 ± 3.87^bcdefg %
% mortality ([2]; 4 ppm, 48 h after treatment): 71.98 ± 2.92^abcd %
% mortality ([2]; 4 ppm, 72 h after treatment): 88.32 ± 7.57^ab %
% mortality ([2]; 4 ppm, 96 h after treatment): 100%
% mortality ([2]; 4 ppm, 120 h after treatment): 100 ± 0^a %

Reference: patent publication US20160000071A1, “PHOTODEGRADABLE, BIOCOMPATIBLE AND EFFICIENT NANO-ENCAPSULATED FORMULATION” (priority 2014, published 2016)
